The conditions of data set [1]: cited from earlier work; for bioavailability: in vivo.
In another data set the test system is H4IIEC3 rat liver cells. Particulars: 100 μM; cited from earlier work.
Data set [2] is described as follows: Human clinical trial in dyslipidemia patients: lipids and blood pressure. It is filed as in vivo. An excerpt:
The following is a general study design for human clinical trial to assess efficacy of pterostilbene, in combination with a statin, to lower cholesterol and/or lower blood pressure, among other measured endpoints including markers for oxidative stress. The study type is interventional: a randomized, double-blind, placebo controlled study. Endpoint Classification: Safety/Efficacy Study.
The purpose of this study is to evaluate whether pterostilbene alone, or a combination of pterostilbene and a statin compound, will help control cholesterol and blood pressure, as well as improve markers for oxidative stress in patients with dyslipidemia meeting inclusion criteria. The investigators will assess the safety of pterostilbene in these patients. Further, 33% of all subjects, spread randomly across all study groups, will be undergoing concurrent statin therapy but still satisfy the inclusion criteria of a previous TC≧200 mg/dL, and/or a LDL-C≧100 mg/dL.
Sixty subjects, divided into three groups: 20 per study group. Ages eligible for study: 18 to 88 years, both genders. No healthy volunteers accepted. Inclusion criteria: patients ≧18 years of age with a previous TC≧200 mg/dL, and/or a LDL-C≧100 mg/dL on either no therapy or stable therapy. Any concomitant cholesterol medication must be at a stable dose for at least 2 months prior to baseline laboratory and not listed in the exclusion criteria. Exclusion criteria: patients with significant hepatic, renal or gastrointestinal tract disease, receiving thiazolidinediones or fibric acid derivatives, current overt cardiovascular disease, women of reproductive potential not receiving birth control, and pregnant/nursing women.
Evaluation Criteria for clinical measurement: 1. Primary outcome measures: lipid laboratory markers (i.e., change in baseline TC, LDL-C, triglycerides (TG), HDL-C, non-HDL-C); 2. Secondary outcome measures: blood pressure (i.e., change in baseline systolic blood pressure and/or diastolic blood pressure); basic metabolic panel; AST (aspartate aminotransferase); ALT (alanine aminotransferase); and/or oxidative stress markers (i.e., change in baseline urine-derived markers of stress (e.g., isoprostanes: iPF2-Alpha-III/creat; iPF2-Alpha-VI/creat; 2,3 Dinor-iPF2-Alpha-III/creat)).
Subjects will be divided into three groups or arms: (1) high dose pterostilbene, 125 mg twice daily by mouth for 6 to 8 weeks; (2) low dose pterostilbene, 50 mg twice daily by mouth for 6 to 8 weeks; (3) matching placebo taken twice daily by mouth for 6 to 8 weeks; either one hour before or two hours after a meal. Further, as stated above, 33% of all subjects, spread randomly across all study groups, will be undergoing concurrent statin therapy. […]

For a further data set, the system named is rat smooth muscle cells. As to conditions: in vitro; cited from earlier work.
Another data set has as its target T1, CYP1A1 (Homo sapiens, UniProt P04798).
T1 sequence (P04798 1-512): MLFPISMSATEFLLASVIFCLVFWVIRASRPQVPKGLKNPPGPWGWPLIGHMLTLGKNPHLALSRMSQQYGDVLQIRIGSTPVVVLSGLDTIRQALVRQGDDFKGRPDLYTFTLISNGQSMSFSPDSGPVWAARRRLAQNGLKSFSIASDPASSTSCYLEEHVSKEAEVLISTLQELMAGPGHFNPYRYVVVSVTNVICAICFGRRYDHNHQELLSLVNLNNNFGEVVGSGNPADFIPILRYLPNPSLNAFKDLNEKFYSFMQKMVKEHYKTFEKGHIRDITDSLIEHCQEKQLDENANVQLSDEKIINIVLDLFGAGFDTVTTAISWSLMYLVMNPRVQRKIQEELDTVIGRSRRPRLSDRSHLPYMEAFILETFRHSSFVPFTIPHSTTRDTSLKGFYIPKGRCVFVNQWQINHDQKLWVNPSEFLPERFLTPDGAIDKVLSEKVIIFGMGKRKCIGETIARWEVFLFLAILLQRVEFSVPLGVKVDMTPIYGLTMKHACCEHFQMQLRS
Particulars: human recombinant; cited from earlier work.

Another data set concerns the target T2, PPAR-alpha (Rattus norvegicus, UniProt P37230).
T2 construct: endogenous in cells; host or cells: H4IIEC3 rat liver cells
T2 sequence (P37230 1-468): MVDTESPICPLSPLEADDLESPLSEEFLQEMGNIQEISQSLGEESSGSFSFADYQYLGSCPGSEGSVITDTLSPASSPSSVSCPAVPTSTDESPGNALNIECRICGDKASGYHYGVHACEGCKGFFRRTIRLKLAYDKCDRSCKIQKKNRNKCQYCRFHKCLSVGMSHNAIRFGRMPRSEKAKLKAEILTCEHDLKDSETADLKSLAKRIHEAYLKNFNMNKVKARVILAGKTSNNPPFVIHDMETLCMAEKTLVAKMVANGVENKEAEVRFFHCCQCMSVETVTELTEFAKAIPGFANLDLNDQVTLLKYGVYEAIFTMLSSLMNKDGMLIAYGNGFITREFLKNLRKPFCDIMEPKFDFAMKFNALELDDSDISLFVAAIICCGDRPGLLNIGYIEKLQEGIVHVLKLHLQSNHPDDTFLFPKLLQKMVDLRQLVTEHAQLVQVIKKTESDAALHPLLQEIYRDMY
As to conditions: cited from earlier work.

The conditions of data set [3]: mice, 28-day subacute; 160 pound human equivalent doses of approximately 125 mg/day, 1.25 g/day and 12.5 g/day; cited from earlier work.
Another data set deals with T3, CYP1B1 (Homo sapiens, UniProt Q16678).
T3 sequence (Q16678 1-543): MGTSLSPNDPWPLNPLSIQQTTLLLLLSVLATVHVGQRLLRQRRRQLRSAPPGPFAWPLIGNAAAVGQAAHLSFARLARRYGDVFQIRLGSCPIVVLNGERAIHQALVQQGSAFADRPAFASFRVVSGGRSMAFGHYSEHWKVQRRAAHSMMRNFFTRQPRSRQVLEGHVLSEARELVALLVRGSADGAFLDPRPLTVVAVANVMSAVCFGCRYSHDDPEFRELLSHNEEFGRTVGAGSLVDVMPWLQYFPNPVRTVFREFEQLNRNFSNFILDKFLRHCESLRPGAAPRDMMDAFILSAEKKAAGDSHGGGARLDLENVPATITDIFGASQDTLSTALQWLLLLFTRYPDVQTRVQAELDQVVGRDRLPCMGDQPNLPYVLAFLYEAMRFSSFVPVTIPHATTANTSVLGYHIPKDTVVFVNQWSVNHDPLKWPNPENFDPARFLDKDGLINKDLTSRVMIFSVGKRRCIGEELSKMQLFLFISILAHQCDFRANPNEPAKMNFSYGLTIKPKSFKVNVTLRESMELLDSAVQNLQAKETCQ
As to conditions: human recombinant; cited from earlier work.

[4] abbreviates: after 8 weeks, oral twice daily, pterostilbene alone.
[5] abbreviates: 100 μM, H4IIEC3 rat liver cells.

Where two headings read alike, the source gives them in different places.

Take `Oc1ccc(C=Cc2cc(O)cc(O)c2)cc1` [resveratrol, reference compound]: in data set [1], the “half life t1/2 in blood” value is 10 to 14 min and the bioavailability entry is recorded as “poor bioavailability”. Also, the Toxicity to cells entry with H4IIEC3 rat liver cells is reported as “toxic to cells”.
For the compound `COc1cc(/C=C/c2ccc(O)cc2)cc(OC)c1` [pterostilbene, 3,5-dimethoxy-4′-hydroxy-trans-stilbene], in data set [1], the “half life t1/2 in blood” value is 74 to 105 min and the bioavailability result is on record as “orally bioavailable”. In data set [2] (setting [4]), the “change in LDL-C level” value is “slight increases” and the “change in TC level” value is “slight increases”. In addition, the “reduction in diastolic blood pressure” value in data set [2] (high dose (250 mg daily), including patients receiving a statin, p<0.001) is −7.3 mmHg. Also, the “reduction in systolic blood pressure” value in data set [2] (high dose (250 mg daily), including patients receiving a statin, p<0.01) is on record as −7.8 mmHg. For the same compound, the “proliferation of rat smooth muscle cells” value with rat smooth muscle cells is reported as “inhibit the proliferation”. Further, the CYP1A1 inhibition entry at CYP1A1 is reported as “shown to inhibit”. Also, at PPAR-alpha (setting [5]), the “PPAR-alpha activation over the control” value was 8 fold and the “PPAR-alpha activation relative to 100 μM of ciprofibrate” value was approximately 2 fold. Further, the “PPAR-alpha activation over the control” value at PPAR-alpha (300 μM, H4IIEC3 rat liver cells) is reported as 14 fold. In addition, the “PPAR-alpha activation (in words)” value on PPAR-alpha (study of a group of similar stilbenes, in a manner similar to ciprofibrate) is given as “activated PPAR-alpha”. The “local or systemic toxicity” value in data set [3] is “no local or systemic toxicity”. Besides, the CYP1B1 inhibition result on CYP1B1 was “shown to inhibit”.
